# Experiments:
# MDA-MB-231 = experiment: MTT cytotoxicity assay, MDA-MB-231 (1st panel); format: cell-based, human; conditions: for IC50: Homo sapiens, MDA-MB-231, ± SD, MTT, 72 h; for selectivity index SI (MDA-MB-231): IC50 normal cell line CCD39Lu/IC50 MDA-MB-231
# Method: (§1) Cell survival was measured as the percentage absorbance compared to the control (nontreated cells). […]
# (§2) SI indexes were calculated from equation SI = IC50 normal cell line HDF/IC50 respective cancerous cell line (Table 2). A beneficial SI > 1.0 indicates a compound with efficacy against tumor cell greater than the toxicity against normal cells.
# (§3) All experiments were carried out with human breast adenocarcinoma (MDA-MB-231 and MCF-7), hepatocellular carcinoma (HepG2), human cervical adenocarcinoma (HeLa) cancer cell lines, and human normal lung fibroblast (CCD39Lu) cell line. The cell line was purchased from the European Collection of Cells Cultures (ECACC, Salisbury, UK), and cultured in DMEM with phenol red supplemented with 10% (v/v) FBS, 1% (v/v) penicillin/streptomycin, and 1% (v/v) L-glutamine at 37 °C, in a humidified atmosphere containing 5% CO2.
# (§4) The tested compounds were dissolved in DMSO to the final concentration 10 mM and stored […]
# (§5) The cytotoxic effect of the tested compounds was determined by MTT assay. MDA-MB-231, MCF-7, HepG2, HeLa, and CCD39Lu cells were seeded in 96 wells plates at density 2x10^4 cells/well and incubated overnight under cell culture condition. Next, cells were treated with tested compounds at concentrations of 10 µM; 5 µM; 2.5 µM; 1.2 µM; 0.6 µM; 0.3 µM; 0.15 […]
# (§6) µM. Moreover, GDM (for MCF-7) and 8 (for MCF-7 and MDA-MB-231) due to high cytotoxicity, were additionally tested at a lower concentration range of 2.5 µM; 1.2 µM; 0.6 µM; 0.3 µM; 0.15µM; 0.07 µM; 0.03 µM. DMSO was used as a control, and the concentration […]
# (§7) Tested compounds were added to cells in the medium without phenol red. Cells were incubated 72 h at 37 °C in a humidified atmosphere containing 5% CO2.
# (§8) Then, the medium was aspirated and MTT solution at a concentration of 0.59 mg/mL in cell culture medium was added to each well. Plates were incubated for 1.5 hours at 37 °C, and then plates were centrifuged for 3 minutes. The formazan crystals were dissolved in 200 µl DMSO and plates were agitated on a plate shaker at 300 –500 rpm for 10 minutes. Absorbance at 570 nm was measured using a plate reader (Biotek Instruments, Elx -800). Data were normalized to the mean absorption of control cells. All experiments were performed at least three times. […]
# MCF-7 = experiment: MTT cytotoxicity assay, MCF-7 (1st panel); format: cell-based, human; conditions: for IC50: Homo sapiens, MCF7, 72 h, ± SD, MTT, 72 h; for selectivity index SI (MCF-7): IC50 normal cell line CCD39Lu/IC50 MCF-7
# Method: as §1, §2, §3, §4, §5, §6, §7, §8
# HeLa = experiment: MTT cytotoxicity assay, HeLa (1st panel); format: cell-based, human; conditions: for IC50: Homo sapiens, HeLa, ± SD, MTT, 72 h; for selectivity index SI (HeLa): IC50 normal cell line CCD39Lu/IC50 HeLa
# Method: as §1, §2, §3, §4, §5, §6, §7, §8
# HepG2 = experiment: MTT cytotoxicity assay, HepG2 (1st panel); format: cell-based, human; conditions: for IC50: Homo sapiens, HepG2, ± SD, MTT, 72 h; for selectivity index SI (HepG2): IC50 normal cell line CCD39Lu/IC50 HepG2
# Method: as §1, §2, §3, §4, §5, §6, §7, §8
# CCD39Lu = experiment: MTT cytotoxicity assay, normal lung fibroblasts CCD39Lu; format: cell-based; conditions: Fibroblast, ± SD, healthy human lung fibroblasts, 72 h, read-out: IC50 CCD39Lu (toxicity in normal cells)
# Method: as §1, §2, §3, §4, §5, §6, §7, §8
# SKBR-3 = experiment: SRB cytotoxicity assay, SKBR-3 (2nd panel); format: cell-based, human; conditions: for IC50: Homo sapiens, SK-BR-3, ± SD, SRB, 72 h, mixtures equimolar 1:1; for selectivity index SIHDF (SKBR-3): IC50 normal cell line HDF/IC50 SKBR-3
# Method: (§9) Human cancer cells SKBR-3 (human breast cancer cell line) and SKOV-3 (ovarian cancer cell line) were cultured in McCoy’s Modified Medium. […]
# (§10) Medium. Human Dermal Fibroblasts cell line (HDF) was cultured in Fibroblast Basal Medium.
# (§11) Each medium was supplemented with 10% fetal bovine serum, 1% L-glutamine, and 1% penicillin/streptomycin solution. The cell lines were kept in the incubator at 37◦C. The optimal plating density of cell lines was determined to be 5 × 104. All the cell lines and mediums were obtained from American Type Culture Collection (ATCC) supplied by LGC-Standards. The protein-staining SRB (Sigma-Aldrich) microculture colorimetric assay, developed by the National Cancer Institute (USA) for in vitro antitumor screening was used in this study, to estimate the cell number by providing a sensitive index of total cellular protein content, being linear to cell density. The monolayer cell culture was trypsinized and the cell count was adjusted to 5 × 10^4 cells. To each well of the 96 well microtiter plate, 0.1 mL of the diluted cell suspension (approximately […]) was added. After 24 hours, when a partial monolayer was formed, the supernatant was washed out and 100 μL of six different compound concentrations (0.1, 0.2, 1, 2, 10, and 20 μM) were added to the cells in microtitre plates. The tested compounds were dissolved in DMSO (containing 10 % of water) (100 μL) and the […]
# (§12) lines. The cells were exposed to compounds for 72 hours at 37 °C in a humidified atmosphere (90% RH) containing 5% CO2. After that, 25 μL of 50 % trichloroacetic acid was added to the wells and the plates were incubated for 1 hour at 4◦C. The plates were then washed out with the distilled water to remove traces of medium and next dried by the air. The air-dried plates were stained with 100 μL of 0.4% sulforhodamine B (prepared in 1 % acetic acid) and kept for 30 minutes at room temperature. The unbound dye was removed by rapidly washing with 1% […]
# (§13) acetic acid and then air dried overnight. The protein-bound dye was dissolved in 100 μL of 10 mM unbuffered Tris base (pH 10.5) for optical density determination at 490 nm. All cytotoxicity experiments were performed three times. Cell survival was measured as the percentage absorbance compared to the control (nontreated cells). Cytarabine (ara-C) and GDM were used as the internal standards. Additionally biological assays were performed in Human Dermal Fibroblasts cell line (HDF) in aim to evaluate cytotoxicity of GDM and its 1-13 analogs in healthy cells. SI indexes were calculated from equation SI = IC50 normal cell line HDF/IC50 respective cancerous cell line (Table 2). A beneficial SI > 1.0 indicates a compound with efficacy against tumor cell greater than the toxicity against normal cells. […]
# SKOV-3 = experiment: SRB cytotoxicity assay, SKOV-3 (2nd panel); format: cell-based, human; conditions: for IC50: Homo sapiens, SK-OV-3, ± SD, SRB, 72 h, mixtures equimolar 1:1; for selectivity index SIHDF (SKOV-3): IC50 normal cell line HDF/IC50 SKOV-3
# Method: as §9, §10, §11, §12, §13
# PC-3 = experiment: SRB cytotoxicity assay, PC-3 (2nd panel); format: cell-based, human; conditions: for IC50: Homo sapiens, PC-3, ± SD, SRB, 72 h, mixtures equimolar 1:1; for selectivity index SIHDF (PC-3): IC50 normal cell line HDF/IC50 PC-3
# Method: as §10, §11, §12, §13
# U-87 = experiment: SRB cytotoxicity assay, U-87 (2nd panel); format: cell-based, human; conditions: for IC50: Homo sapiens, U-87 MG, ± SD, SRB, 72 h; for selectivity index SIHDF (U-87): IC50 normal cell line HDF/IC50 U-87
# Method: U-87MG cells (glioblastoma cell line) were cultured in Eagle’s Minimal Essential Medium. Human Dermal Fibroblasts cell line (HDF) was cultured in Fibroblast Basal Medium.
# as §11, §12, §13
# A-549 = experiment: SRB cytotoxicity assay, A-549 (2nd panel); format: cell-based, human; conditions: for IC50: Homo sapiens, A549, ± SD, SRB, 72 h; for selectivity index SIHDF (A-549): IC50 normal cell line HDF/IC50 A-549
# Method: as §10, §11, §12, §13
# HDF = experiment: SRB cytotoxicity assay, human dermal fibroblasts HDF; format: cell-based; conditions: 72 h, ± SD, mixtures equimolar 1:1, read-out: IC50 HDF (toxicity in normal cells)
# Method: as §10, §11, §12, §13
# physchem = conditions: water, Solubility SH2O
# cancer cell lines = experiment: Cytotoxicity, values summarised over several cancer cell lines; format: cell-based, human; conditions: Homo sapiens, approximate level over the three cancer cell lines; mixtures equimolar 1:1; read-out: IC50 in SKBR-3, SKOV-3 and PC-3
# Method: Human cancer cells SKBR-3 (human breast cancer cell line) and SKOV-3 (ovarian cancer cell line) were cultured in McCoy’s Modified Medium. Human cancer cells PC-3 (human prostate cancer cell line) were cultured in F-12K medium, as well as A549 cell line (lung cancer cell line). U-87MG cells (glioblastoma cell line) were cultured in Eagle’s Minimal Essential Medium. Human Dermal Fibroblasts cell line (HDF) was cultured in Fibroblast Basal Medium.
# as §11, §12
# acetic acid and then air dried overnight. The protein-bound dye was dissolved in 100 μL of 10 mM unbuffered Tris base (pH 10.5) for optical density determination at 490 nm. All cytotoxicity experiments were performed three times. Cell survival was measured as the percentage absorbance compared to the control (nontreated cells). Cytarabine (ara-C) and GDM were used as the internal standards. Additionally biological assays were performed in Human Dermal Fibroblasts cell line (HDF) in aim to evaluate cytotoxicity of GDM and its 1-13 analogs in healthy cells. SI indexes were calculated from equation SI = IC50 normal cell line HDF/IC50 respective cancerous cell line (Table 2). A beneficial SI > 1.0 indicates a compound with efficacy against tumor cell greater than the toxicity against normal cells.
# as §3, §4, §5
Compound,IC50 (MDA-MB-231) [µM],selectivity index SI (MDA-MB-231) (MDA-MB-231),IC50 (MCF-7) [µM],selectivity index SI (MCF-7) (MCF-7),IC50 (HeLa) [µM],selectivity index SI (HeLa) (HeLa),IC50 (HepG2) [µM],selectivity index SI (HepG2) (HepG2),IC50 (CCD39Lu) [µM],IC50 (SKBR-3) [µM],selectivity index SIHDF (SKBR-3) (SKBR-3),IC50 (SKOV-3) [µM],selectivity index SIHDF (SKOV-3) (SKOV-3),IC50 (PC-3) [µM],selectivity index SIHDF (PC-3) (PC-3),CC50 (HDF) [µM],also measured
CO[C@H]1/C=C\C=C(/C)C(=O)NC2=CC(=O)C(NC3C[N+]4(Cc5ccsc5Br)CCC3CC4)=C(C[C@@H](C)C[C@H](OC)[C@H](O)[C@@H](C)/C=C(\C)[C@@H]1OC(N)=O)C2=O (stereo partly drawn) [Compound 12],5.01 ± 2.15,> 2.00,2.65 ± 1.09,> 3.77,9.12 ± 1.81,> 1.10,> 10,> 1,> 10,8.49 ± 0.36,1.64,8.02 ± 0.17,1.73,7.94 ± 0.03,1.75,13.9 ± 0.42,IC50 (U-87): 8.58 ± 0.19 µM; selectivity index SIHDF (U-87) (U-87): 1.62; IC50 (A-549): 8.94 ± 0.27 µM; selectivity index SIHDF (A-549) (A-549): 1.56; solubility (physchem): 4500 µg/mL
"COc1cccc2c1C(=O)c1c(O)c3c(c(O)c1C2=O)C[C@@](O)(C(=O)CO)C[C@@H]3O[C@H]1C[C@H](N)[C@H](O)[C@H](C)O1 [DOX, doxorubicin, reference compound]",–,–,–,–,–,–,–,–,–,0.72 ± 0.04,2.11,0.74 ± 0.06,2.05,0.68 ± 0.01,2.24,1.52 ± 0.03,IC50 (cancer cell lines): ~0.7 µM
CO[C@H]1/C=C\C=C(/C)C(=O)NC2=CC(=O)C(NC3CCC(O)CC3)=C(C[C@@H](C)C[C@H](OC)[C@H](O)[C@@H](C)/C=C(\C)[C@@H]1OC(N)=O)C2=O (stereo partly drawn) [Compound 4],> 10,> 1,> 10,> 1,> 10,> 1,> 10,> 1,> 10,–,–,–,–,–,–,–,solubility (Water solubility SH2O): 40 µg/mL
CO[C@H]1/C=C\C=C(/C)C(=O)NC2=CC(=O)C(NC3C[N+]4(Cc5ccc([N+](=O)[O-])o5)CCC3CC4)=C(C[C@@H](C)C[C@H](OC)[C@H](O)[C@@H](C)/C=C(\C)[C@@H]1OC(N)=O)C2=O (stereo partly drawn) [Compound 11],3.93 ± 1.6,> 2.54,4.67 ± 2,> 2.14,8.91 ± 3.19,> 1.12,8.86 ± 0.17,> 1.13,> 10,6.49 ± 0.07,1.22,6.04 ± 0.38,1.31,6.22 ± 0.13,1.27,7.91 ± 0.91,IC50 (U-87): 6.06 ± 0.58 µM; selectivity index SIHDF (U-87) (U-87): 1.31; IC50 (A-549): 6.83 ± 0.32 µM; selectivity index SIHDF (A-549) (A-549): 1.16; solubility (physchem): 2300 µg/mL
CO[C@H]1/C=C\C=C(/C)C(=O)NC2=CC(=O)C(NC3CCN(C(C)=O)CC3)=C(C[C@@H](C)C[C@H](OC)[C@H](O)[C@@H](C)/C=C(\C)[C@@H]1OC(N)=O)C2=O [Compound 6],3.16 ± 0.89,> 3.16,0.61 ± 0.14,> 16.39,4.75 ± 0.35,> 2.11,3.38 ± 0.13,> 2.96,> 10,–,–,–,–,–,–,–,–
CO[C@H]1/C=C\C=C(/C)C(=O)NC2=CC(=O)C(NC3CCN(S(C)(=O)=O)CC3)=C(C[C@@H](C)C[C@H](OC)[C@H](O)[C@@H](C)/C=C(\C)[C@@H]1OC(N)=O)C2=O [Compound 7],2.36 ± 0.35,5.34,0.96 ± 0.51,13.13,1.61 ± 0.61,7.83,1.68 ± 0.32,7.50,12.6 ± 0.21,–,–,–,–,–,–,–,–
CO[C@H]1/C=C\C=C(/C)C(=O)NC2=CC(=O)C(NC3CCN(Cc4ccccc4)CC3)=C(C[C@@H](C)C[C@H](OC)[C@H](O)[C@@H](C)/C=C(\C)[C@@H]1OC(N)=O)C2=O [Compound 5],2.28 ± 0.54,6.71,1.84 ± 0.57,8.32,1.56 ± 0.14,9.81,1.63 ± 0.49,9.39,15.3 ± 0.12,–,–,–,–,–,–,–,–

# Source: publication PMC8344233, “Anticancer activity and toxicity of new quaternary ammonium geldanamycin derivative salts and their mixtures with potentiators” (Journal of Enzyme Inhibition and Medicinal Chemistry, 2021)
